Assay results taken from US12371464B2, “Polypeptides and uses thereof” (MEDIMMUNE LIMITED, priority 2020, dated 2025).
Numbered stars: 1 amine (or outer) side, 2 acyl side, 3 side chain; on linkers, the order of the positions; unused ones are H or OH. Bridge positions count the residues as written; N and C are the ends. Square brackets hold non-standard residues; d marks the D form. Side chains are listed from the residue outwards. Peptide text beside a SMILES is read from it. * marks the point of attachment. C20 diacid = O=C(O)CCCCCCCCCCCCCCCCCCC(=O)*; C18 diacid = O=C(O)CCCCCCCCCCCCCCCCC(=O)*; γGlu = O=C(O)[C@H](CCC(=O)[*:2])N[*:1]; αMeF = C[C@](N)(Cc1ccccc1)C(=O)O; Dab = NCC[C@H](N)C(=O)O; AEEA = NCCOCCOCC(=O)O; Aib = CC(C)(N)C(=O)O

Assay: Thioflavin T fibrillation assay
Assay type: physicochemical
Settings: for Time taken to detect increase in fluorescence intensity: 1 mg/mL in 25 mM sodium acetate buffer pH 4.0, 37° C., 6 days, orbital shaking, >144 h = no increase; for fibril-forming tendency on conjugating pramlintide to a lipid: as seen in Table 7
Text: Peptide aggregation that form fibrils is an indication of physical instability. Fibril formation in solution poses a significant risk for the stability of injectable peptide drug products. Thioflavin T (ThT) fibrillation assay is a useful tool to assess the aggregation kinetics of a peptide or protein under accelerated and stressed conditions that can be used to forecast the long-term viability of a compound in solution. ThT can selectively bind amyloid fibrils and the resultant complex emits strong fluorescence signal at 482 nm when excited at 450 nm (Anal Biochem. 1989 March; 177 (2): 244-9). Monitoring of the change in fluorescence signal is an established method to study the fibril forming potential of peptides and proteins. ThT (purchased from Sigma Aldrich) stock solution is prepared by dissolving the ThT powder in Milli-Q water and filtered to obtain a 0.25 mM solution. The concentration of the solution is measured at 412 nm using an extinction coefficient of 36 mM-1 cm-1. Test peptides were dissolved at 1 mg/mL in 25 mM sodium acetate buffer pH 4.0. 100 μL aliquot of peptide solution and 5 μL aliquot of ThT solution were placed in a clear bottom black fluorescence 96-well plate. 5 replicates of each test samples were placed in the same row of the plate. Buffer was placed in control wells for baseline correction. All empty wells were filled with water to prevent evaporation. The plate was sealed with aluminium seal and placed in fluorescence plate reader and incubated for 6 days at 37° C. with intermittent orbital shaking at 500 to 750 rpm. The fluorescence intensity was measured every 30 min using excitation at 444 nm and emission at 480 nm. The fibril forming potential of the test peptides was determined by measuring the average time taken to detect an increase in baseline corrected fluorescence intensity.

Row | SMILES | Time taken to detect increase in fluorescence intensity [h] | fibril-forming tendency on conjugating pramlintide to a lipid
1 | CC[C@H](C)[C@H](NC(=O)[C@@H]1CCCN1C(=O)CNC(=O)[C@H](Cc1ccccc1)NC(=O)[C@H](CC(N)=O)NC(=O)[C@H](CCN)NC(=O)[C@H](CO)NC(=O)[C@H](CO)NC(=O)[C@H](Cc1c[nH]cn1)NC(=O)[C@@H](NC(=O)[C@H](CC(C)C)NC(=O)[C@H](Cc1ccccc1)NC(=O)[C@H](CC(N)=O)NC(=O)[C@H](C)NC(=O)[C@H](CC(C)C)NC(=O)[C@H](CCCNC(=N)N)NC(=O)[C@H](CCC(N)=O)NC(=O)[C@@H](NC(=O)[C@H](C)NC(=O)[C@@H]1CSSC[C@H](NC(=O)[C@H](CCCCN)NC(=O)[C@@H](N)CCCCNC(=O)CC[C@H](NC(=O)CCCCCCCCCCCCCCCCC(=O)O)C(=O)O)C(=O)N[C@@H](CC(N)=O)C(=O)N[C@@H]([C@@H](C)O)C(=O)N[C@@H](C)C(=O)N[C@@H]([C@@H](C)O)C(=O)N1)[C@@H](C)O)C(C)C)C(=O)N[C@@H](CC(C)C)C(=O)N1CCC[C@H]1C(=O)N1CCC[C@H]1C(=O)N[C@H](C(=O)N[C@@H](CCC(=O)O)C(=O)N[C@H](C(=O)NCC(=O)N[C@@H](CO)C(=O)N[C@@H](CC(N)=O)C(=O)N[C@H](C(=O)N[C@@H](Cc1ccc(O)cc1)C(N)=O)[C@@H](C)O)C(C)C)[C@@H](C)O [Peptide 28, K(γE-C18diacid)K[CNTATC]ATQRLANFLVHSS(Dab)NFGPILPPTEVGSNTY-amide] (H-K([γGlu-C18 diacid])KCNTATCATQRLANFLVHSS[Dab]NFGPILPPTEVGSNTY-NH2; disulfide 3-8; N-terminus assumed) | 45 | –
2 | CC[C@H](C)[C@H](NC(=O)[C@@H]1CCCN1C(=O)CNC(=O)[C@H](Cc1ccccc1)NC(=O)[C@H](CC(N)=O)NC(=O)C(C)(C)NC(=O)[C@H](CO)NC(=O)[C@H](CO)NC(=O)[C@H](Cc1c[nH]cn1)NC(=O)[C@@H](NC(=O)[C@H](CC(C)C)NC(=O)[C@H](Cc1ccccc1)NC(=O)[C@H](CC(N)=O)NC(=O)[C@H](C)NC(=O)[C@H](CC(C)C)NC(=O)[C@H](CCCNC(=N)N)NC(=O)[C@H](CCC(N)=O)NC(=O)[C@@H](NC(=O)[C@H](C)NC(=O)[C@@H]1CSSC[C@H](NC(=O)[C@H](CCCCN)NC(=O)[C@@H](N)CCCCNC(=O)CC[C@H](NC(=O)CCCCCCCCCCCCCCCCC(=O)O)C(=O)O)C(=O)N[C@@H](CC(N)=O)C(=O)N[C@@H]([C@@H](C)O)C(=O)N[C@@H](C)C(=O)N[C@@H]([C@@H](C)O)C(=O)N1)[C@@H](C)O)C(C)C)C(=O)N[C@@H](CC(C)C)C(=O)N1CCC[C@H]1C(=O)N1CCC[C@H]1C(=O)N[C@H](C(=O)NC(C)(C)C(=O)N[C@H](C(=O)NCC(=O)N[C@@H](CO)C(=O)N[C@@H](CC(N)=O)C(=O)N[C@H](C(=O)N[C@@H](Cc1ccc(O)cc1)C(N)=O)[C@@H](C)O)C(C)C)[C@@H](C)O [Peptide 80, K(γE-C18diacid)K[CNTATC]ATQRLANFLVHSS(Aib)NFGPILPPT(Aib)VGSNTY-amide] (H-K([γGlu-C18 diacid])KCNTATCATQRLANFLVHSS[Aib]NFGPILPPT[Aib]VGSNTY-NH2; disulfide 3-8; N-terminus assumed) | >144 | –
3 | CC[C@H](C)[C@H](NC(=O)[C@@H]1CCCN1C(=O)CNC(=O)[C@H](Cc1ccccc1)NC(=O)[C@H](CC(N)=O)NC(=O)[C@H](CC(N)=O)NC(=O)[C@H](CO)NC(=O)[C@H](CO)NC(=O)[C@H](Cc1c[nH]cn1)NC(=O)[C@@H](NC(=O)[C@H](CC(C)C)NC(=O)[C@H](Cc1ccccc1)NC(=O)[C@H](CCN)NC(=O)[C@H](C)NC(=O)[C@H](CC(C)C)NC(=O)[C@H](CCCNC(=N)N)NC(=O)[C@H](CCC(N)=O)NC(=O)[C@@H](NC(=O)[C@H](C)NC(=O)[C@@H]1CSSC[C@H](NC(=O)[C@H](CCCCN)NC(=O)[C@@H](N)CCCCNC(=O)CC[C@H](NC(=O)CCCCCCCCCCCCCCCCC(=O)O)C(=O)O)C(=O)N[C@@H](CC(N)=O)C(=O)N[C@@H]([C@@H](C)O)C(=O)N[C@@H](C)C(=O)N[C@@H]([C@@H](C)O)C(=O)N1)[C@@H](C)O)C(C)C)C(=O)N[C@@H](CC(C)C)C(=O)N1CCC[C@H]1C(=O)N1CCC[C@H]1C(=O)N[C@H](C(=O)N[C@@H](CC(N)=O)C(=O)N[C@H](C(=O)NCC(=O)N[C@@H](CO)C(=O)N[C@@H](CC(N)=O)C(=O)N[C@H](C(=O)N[C@@H](Cc1ccc(O)cc1)C(N)=O)[C@@H](C)O)C(C)C)[C@@H](C)O [Peptide 33] (H-K([γGlu-C18 diacid])KCNTATCATQRLA[Dab]FLVHSSNNFGPILPPTNVGSNTY-NH2; disulfide 3-8; N-terminus assumed) | >144 | –

Next, values leading:

Row | Time taken to detect increase in fluorescence intensity [h] | fibril-forming tendency on conjugating pramlintide to a lipid | SMILES
4 | <5 | increases the fibril-forming tendency | CC[C@H](C)[C@H](NC(=O)[C@@H]1CCCN1C(=O)CNC(=O)[C@H](Cc1ccccc1)NC(=O)[C@H](CC(N)=O)NC(=O)[C@H](CC(N)=O)NC(=O)[C@H](CO)NC(=O)[C@H](CO)NC(=O)[C@H](Cc1c[nH]cn1)NC(=O)[C@@H](NC(=O)[C@H](CC(C)C)NC(=O)[C@H](Cc1ccccc1)NC(=O)[C@H](CC(N)=O)NC(=O)[C@H](C)NC(=O)[C@H](CC(C)C)NC(=O)[C@H](CCCNC(=N)N)NC(=O)[C@H](CCC(N)=O)NC(=O)[C@@H](NC(=O)[C@H](C)NC(=O)[C@@H]1CSSC[C@H](NC(=O)[C@H](CCCCN)NC(=O)COCCOCCNC(=O)COCCOCCNC(=O)CC[C@H](NC(=O)CCCCCCCCCCCCCCCCCCC(=O)O)C(=O)O)C(=O)N[C@@H](CC(N)=O)C(=O)N[C@@H]([C@@H](C)O)C(=O)N[C@@H](C)C(=O)N[C@@H]([C@@H](C)O)C(=O)N1)[C@@H](C)O)C(C)C)C(=O)N[C@@H](CC(C)C)C(=O)N1CCC[C@H]1C(=O)N1CCC[C@H]1C(=O)N[C@H](C(=O)N[C@@H](CC(N)=O)C(=O)N[C@H](C(=O)NCC(=O)N[C@@H](CO)C(=O)N[C@@H](CC(N)=O)C(=O)N[C@H](C(=O)N[C@@H](Cc1ccc(O)cc1)C(N)=O)[C@@H](C)O)C(C)C)[C@@H](C)O [Peptide 113] ({C20 diacid-γGlu-AEEA-AEEA}-KCNTATCATQRLANFLVHSSNNFGPILPPTNVGSNTY-NH2; disulfide 2-7)
5 | >144 | – | CC[C@H](C)[C@H](NC(=O)[C@@H]1CCCN1C(=O)CNC(=O)[C@](C)(Cc1ccccc1)NC(=O)[C@H](CC(N)=O)NC(=O)[C@H](CC(N)=O)NC(=O)[C@H](CO)NC(=O)[C@H](CO)NC(=O)[C@H](Cc1c[nH]cn1)NC(=O)[C@H](CCCNC(=N)N)NC(=O)[C@H](CC(C)C)NC(=O)[C@H](Cc1ccccc1)NC(=O)[C@H](CC(N)=O)NC(=O)[C@H](C)NC(=O)[C@H](CC(C)C)NC(=O)[C@H](CCCNC(=N)N)NC(=O)[C@H](CCC(N)=O)NC(=O)[C@@H](NC(=O)[C@H](C)NC(=O)[C@@H]1CSSC[C@H](NC(=O)[C@@H](N)CCCCNC(=O)COCCOCCNC(=O)COCCOCCNC(=O)CC[C@H](NC(=O)CCCCCCCCCCCCCCCCC(=O)O)C(=O)O)C(=O)N[C@@H](CC(N)=O)C(=O)N[C@@H]([C@@H](C)O)C(=O)N[C@@H](C)C(=O)N[C@@H]([C@@H](C)O)C(=O)N1)[C@@H](C)O)C(=O)N[C@@H](CC(C)C)C(=O)N1CCC[C@H]1C(=O)N1CCC[C@H]1C(=O)N[C@H](C(=O)N[C@@H](CCC(=O)O)C(=O)N[C@H](C(=O)NCC(=O)N[C@@H](CO)C(=O)N[C@@H](CC(N)=O)C(=O)N[C@H](C(=O)N[C@@H](Cc1ccc(O)cc1)C(N)=O)[C@@H](C)O)C(C)C)[C@@H](C)O [Peptide 17, K(O2Oc-O2Oc-γE-C18diacid)[CNTATC]ATQRLANFLRHSSNN(αMePhe)GPILPPTEVGSNTY-amide] (H-K([AEEA-AEEA-γGlu-C18 diacid])CNTATCATQRLANFLRHSSNN[αMeF]GPILPPTEVGSNTY-NH2; disulfide 2-7; N-terminus assumed)
6 | <5 | increases the fibril-forming tendency | CC[C@H](C)[C@H](NC(=O)[C@@H]1CCCN1C(=O)CNC(=O)[C@H](Cc1ccccc1)NC(=O)[C@H](CC(N)=O)NC(=O)[C@H](CC(N)=O)NC(=O)[C@H](CO)NC(=O)[C@H](CO)NC(=O)[C@H](Cc1c[nH]cn1)NC(=O)[C@@H](NC(=O)[C@H](CC(C)C)NC(=O)[C@H](Cc1ccccc1)NC(=O)[C@H](CC(N)=O)NC(=O)[C@H](C)NC(=O)[C@H](CC(C)C)NC(=O)[C@H](CCCNC(=N)N)NC(=O)[C@H](CCC(N)=O)NC(=O)[C@@H](NC(=O)[C@H](C)NC(=O)[C@@H]1CSSC[C@H](NC(=O)[C@H](CCCCN)NC(=O)CC[C@H](NC(=O)CCCCCCCCCCCCCCCCCCC(=O)O)C(=O)O)C(=O)N[C@@H](CC(N)=O)C(=O)N[C@@H]([C@@H](C)O)C(=O)N[C@@H](C)C(=O)N[C@@H]([C@@H](C)O)C(=O)N1)[C@@H](C)O)C(C)C)C(=O)N[C@@H](CC(C)C)C(=O)N1CCC[C@H]1C(=O)N1CCC[C@H]1C(=O)N[C@H](C(=O)N[C@@H](CC(N)=O)C(=O)N[C@H](C(=O)NCC(=O)N[C@@H](CO)C(=O)N[C@@H](CC(N)=O)C(=O)N[C@H](C(=O)N[C@@H](Cc1ccc(O)cc1)C(N)=O)[C@@H](C)O)C(C)C)[C@@H](C)O [Peptide 112] ({C20 diacid-γGlu}-KCNTATCATQRLANFLVHSSNNFGPILPPTNVGSNTY-NH2; disulfide 2-7)
